Consider six compounds from patent US12552763B2, “Methods of protecting against neurodegeneration” (BioVentures, LLC, priority 2017, dated 2026).

Entries after “also recorded” stand apart in the source; their conditions may differ. Some results are limits rather than exact numbers.

In assay [1] the test system is C. elegans strain AM141 (Q40::YFP aggregates). Put plainly: Q40::YFP aggregate foci in C. elegans strain AM141 (Huntington-like polyglutamine aggregation model). It is filed as in vivo. The following applies: for reduction of aggregate count (aggregate foci): strain AM141, Q40::YFP in muscle, FIG. 3. From the text:
C. elegans (AM141) adults were imaged at 7 days of adult age and quantified for intensity (FIG. 2A) and number (FIG. 2B) of Q40::YFP aggregates after 0, 1, 3, or 6 d of exposure to 50-nM PNR-5-02. Treated worms differ from untreated worms (“Days Tx”=0) by 2-tailed t test: *P<0.01; **P<1E-4.
FIG. 3 depicts a graph showing reduction of protein aggregation in a C. elegans model of Huntington's disease or other neurodegenerative diseases featuring aggregates that contain polyglutamine tracts. Strain AM141, which expresses Q40::YFP in muscle, undergoes age-progressive accumulation of aggregate foci. PNR-5-02 analogues confer at least 30% reduction in formation of aggregate foci (****=P<0.00005 and *=P<0.01). PNR-5-18, PNR-4-44, PNR-5-58, and PNR-4-76 reduced aggregate count by ˜20%. PNR-5-02, PNR-4-87, PNR-5-56, and PNR-5-57 reduced aggregates ≥30%.
(§1) Several panels of drugs were tested for their ability to protect against formation of protein aggregates in the following model systems: (i) a cell-culture model of Alzheimer-like protein aggregation (SH-SY5Y-APPSw, a human neuroblastoma cell line expressing the Swedish mutation of Amyloid Precursor Protein (APP), and thus predisposed to form β-amyloid aggregates; (ii) C. elegans strain CL4176, a model of Alzheimer-like amyloidopathy that can be induced to express human Aβ1-42 in muscle, and declines sharply in motility 24-42 hours after induction unless protected by effective drugs; (iii) C. elegans strain CL2355, a model of Alzheimer-like amyloidopathy that expresses human Aβ1-42 in all neurons after upshift induction (as in ii, above), and consequently loses its normal chemotactic responses; (iv) C. elegans strain NL5901, a model of Parkinson's disease that expresses α-synuclein::GFP in neurons, forming fluorescent aggregates with age; aggregates are scored by number and intensity of GFP foci, or scored for neuron loss with age by dye-filling; and (v) C. elegans strain AM141, a model of Huntington-like polyglutamine aggregation, which expresses Q40::YFP (a 40-glutamine tract fused in-frame to yellow fluorescent protein) in muscle cells and accumulates aggregates during aging.

For the next assay, the system named is SH-SY5Y-APPSw cells. Put plainly: Thioflavin-T amyloid staining in SH-SY5Y-APPSw neuroblastoma cells. It is filed as cell-based, human. The following applies: for reduction of Thioflavin-fluorescence intensity: 48 hours drug treatment, amyloid fluorescence per nucleus, P<0.0001. The protocol: FIG. 7 depicts a graph showing PNR-5-02 analogues reduce amyloid accumulation in human neuroblastoma cells overexpressing amyloid precursor protein (APPSw). SH-SY5Y-APPSw, human neuroblastoma cells overexpressing a mutant amyloid precursor protein (APPsw) associated with familial AD. Elevated APPSw leads to substantial formation of amyloid plaque, visualized by fluorescence microscopy after Thioflavin-T staining on day 3 of culture.
as §1
Human neuroblastoma cells (SH-SY5Y-APPsw), express the Swedish mutant of Amyloid Precursor Protein (APPsw) and therefore are predisposed to form amyloid aggregate. […] Amyloid fluorescence is then divided by the number of nuclei, to obtain relative amyloid content per cell.

A further assay relates to BRI-Aβ42 mice. In words: Sarcosyl-insoluble protein aggregates in cerebral cortex of BRI-Aβ42 mice. The class given is in vivo. The protocol:
Total protein and sarcosyl-insoluble protein aggregates were prepared from cerebral cortex of […] mice, treated as in FIG. 4. Aliquots were separated on SDS-acrylamide gels and stained with Sypro Ruby (Molecular Probes). Gel lanes were scanned, and for each aggregate-protein lane the integral of intensity was normalized to the integral for total protein. *P<0.03 by 1-tailed heteroscedastic t test.
Total protein and total sarcosyl-insoluble aggregates were isolated from cerebral cortex of BRI-Aβ42 mice, sacrificed after 10 daily IP injections with PNR-5-02 (as above) or vehicle. Protein aliquots were suspended in Laemmli buffer and resolved by SDS-acrylamide gel electrophoresis, and quantitated by protein-specific fluorescent staining. Results, presented in FIG. 5 as the percent of aggregate protein after normalization to total protein from the same sample, indicate an 18% reduction in aggregates for PNR-5-02-treated mice. Larger aggregates (at the top of each gel lane) were reduced >40%.

A further assay concerns C. elegans. In words: C. elegans life span. The class given is in vivo. The method, then:
FIG. 8 depicts a graph showing that PNR-5-02 increase C. elegans life span. The effect of PNR-5-02 on C. elegans life span, at different concentrations both mean and maximum life span of the nematode life span is extended by 15%.
Synchronized eggs (expected to hatch at approximately the same time) were placed on 60-mm nutrient-agar plates to which either vehicle (0.013% DMSO, v/v) for controls or PNR-5-02 (10 μM in 0.013% DMSO) was added. Worms were transferred to fresh plates daily for 7 days, and on alternate days thereafter, scoring worms as alive if they moved spontaneously or in response to gentle prodding. Worms lost for reasons other than natural death were censored (removed from mortality calculations) from that date. PNR-5-02 extended the nematode life span by 15% (FIG. 8).

The next assay concerns C. elegans strain CL4176. Put plainly: C. elegans strain CL4176 amyloidopathy model (human Aβ1-42 in muscle, motility). It is filed as in vivo. The following applies: CL4176, decline in motility 24-42 hours after induction. The protocol:
as §1

The subject of the next assay is C. elegans strain CL2355. In words: C. elegans strain CL2355 amyloidopathy model (human Aβ1-42 in all neurons, chemotaxis). The class given is in vivo. The following applies: CL2355, loss of chemotactic responses. The method, then: as §1
In the next assay the test system is C. elegans strain NL5901. Put plainly: C. elegans strain NL5901 Parkinson's disease model (α-synuclein::GFP aggregates). The class given is in vivo. The following applies: NL5901, α-synuclein::GFP foci or neuron loss. The method, then: as §1
The mark [2] stands for this setting: cerebral cortex, 10 daily IP injections 5.7 μmole/kg.
The mark [3] stands for this setting: at different concentrations, FIG. 8.

As for `COc1cc(/C(C#N)=C/c2cc3ccccc3[nH]2)cc(OC)c1OC` [PNR-4-44], the “reduction of aggregate count (aggregate foci)” value (from here on “reduction of aggregate count”) in assay [1] is on record as approximately 20%.

For the compound `COc1ccc(/C(C#N)=C/c2cc3ccccc3s2)cc1` [PNR-4-76], the “reduction of aggregate count” value in assay [1] is listed as approximately 20%.

For the compound `COc1ccc(/C(C#N)=C/c2c[nH]c3ccccc23)cc1OC` [PNR-4-87], the “reduction of Thioflavin-fluorescence intensity” value in the assay with SH-SY5Y-APPSw cells came to 34%.

On to `COc1cc(/C(C#N)=C\c2cc3ccccc3s2)cc(OC)c1OC` [PNR-5-02], for which the “intensity and number of Q40::YFP aggregates” value in assay [1] (AM141 adults imaged at 7 days of adult age, 1 d exposure to 50-nM vs 6 d exposure) is “as effective in reducing AM141 aggregates as 6-days exposure; also recorded: reduces Q40 aggregated in just 1 day”. The “protection against formation of protein aggregates” value is on record as “protective” in assay [1] (C. elegans AM141, Q40::YFP aggregates); “protective” in the assay with SH-SY5Y-APPSw cells (SH-SY5Y-APPSw, β-amyloid aggregates); “protective” in the assay on C. elegans strain CL4176; “protective” in the assay with C. elegans strain CL2355; “protective” in the assay on C. elegans strain NL5901. In addition, the “protein aggregates in cerebral cortex (in words)” value with BRI-Aβ42 mice (FIG. 5, P<0.03 by 1-tailed heteroscedastic t test) is recorded as “reduces protein aggregates”. Moreover, the “reduction in sarcosyl-insoluble aggregates normalized to total protein” value in the assay with BRI-Aβ42 mice (setting [2]) was determined as 18%. The “reduction of larger aggregates (top of each gel lane)” value in the assay with BRI-Aβ42 mice (setting [2]) is more than 40%. For the same compound, the life span extension in the assay with C. elegans (10 μM in 0.013% DMSO, from eggs) was 15%. Moreover, in the assay with C. elegans (setting [3]), the “maximum life span extension” value was determined as 15%. For the same compound, in the assay on C. elegans (setting [3]), the “mean life span extension” value came to 15%.

Take `COc1cc(/C(C#N)=C/c2coc3ccccc23)cc(OC)c1OC` [PNR-5-18]: in assay [1], the “reduction of aggregate count” value was approximately 20%.

On to `COc1cc(OC)cc(/C(C#N)=C/c2nc3ccccc3s2)c1` [PNR-5-58], for which the “reduction of aggregate count” value in assay [1] is recorded as approximately 20%. The “reduction of Thioflavin-fluorescence intensity” value in the assay with SH-SY5Y-APPSw cells is reported as 54%.
